In patent US12522596B2, “Compounds as GLP-1R agonists” (Terns Pharmaceuticals, Inc., priority 2021, dated 2026):
Values joined by “and” are separate entries in the source; they are usually repeats but may differ in a detail not shown here. Equal entries are not always repeated. Where two headings read alike, the source gives them in different places. Marks after values point to notes of the source that are not given here.

Assay: Pharmacokinetics in hGLP-1R mice after oral dosing
Assay type: in vivo, male C57BL/6J hGLP-1R mouse
Experimental: IPGTT (120 min)—PK bleeding: 40 μL blood samples (all treatment groups) were collected from mice under the jaw at IPGTT-120 min after blood glucose measurement into pre-chilled EDTA-2K tubes. Blood samples were processed for plasma by centrifugation at 4° C., 3200×g for 10 min. 15 μL plasma was stored at −80° C. for PK analysis. From 4 mice in Group 7 of the PD cohort, whole brain was collected after blood is harvested at 120 min post dose, rinsed with saline and patted dry and placed into a pre-weighed tube and stored at −80° C. collected for PK analysis.
PK bleeding group design is described in Table 9.
PK bleeding: 30 μL blood was collected at 0.25, 0.5, 1, 2, 4, and 8 h. Blood samples were processed for plasma by centrifugation at 4° C., 3200×g for 10 min. 12 μL plasma was collected at −80° C. for further analysis. From 3 mice in Group 7 of the PK cohort, whole brain was collected after blood is harvested at 8 hr post dose, rinsed with saline and patted dry and placed into a pre-weighed tube and stored at −80° C. collected for PK analysis.
For plasma: An aliquot of 3 μL sample was protein precipitated with 60 μL internal standard (100 ng/mL Labetalol & 100 ng/ml Dexamethasone & 100 ng/ml Tolbutamide & 100 ng/mL Verapamil & 100 ng/ml Glyburide & 100 ng/ml Celecoxib in ACN) and then the mixture was vortex-mixed for 10 min at 800 rpm and centrifuged for 15 min at 3220×g, 4° C.
The linear/log trapezoidal rule was applied in obtaining the PK parameters. Individual plasma concentration values that were below the lower limit of quantitation (LOQ) were excluded from the PK parameter calculation. The nominal dose levels and nominal sampling times were used in the calculation of all pharmacokinetic parameters.

[1] = hGLP-1R mouse plasma, PO 0.3 mg/kg, individual mice, 0.3 mg/kg
[2] = hGLP-1R mouse plasma, PO 0.3 mg/kg, mean
[3] = hGLP-1R mouse plasma, PO 1 mg/kg, individual mice, 1 mg/kg
[4] = hGLP-1R mouse plasma, PO 1 mg/kg, mean

Question: Which “increase of exposure with dose (dose proportionality)” value (hGLP-1R mice, PO, Reference Compound A 0.3-1 mg/kg, Compound 2 0.3-3 mg/kg) does the source give for `N#Cc1ccc(COc2cccc(C3CCN(Cc4nc5ccc(C(=O)O)cc5n4C[C@@H]4CCO4)CC3)n2)c(F)c1` [Reference Compound A, reference compound] here?
Answer: approximately dose proportional manner

Question: What about the Concentration (hGLP-1R mouse plasma collected at 120 min (IPGTT cohort), PO 0.3 mg/kg, individual animals, 0.3 mg/kg) of the same compound?
Answer: 8.61 ng/mL and 8.10 ng/mL and 5.55 ng/mL and 7.19 ng/mL and 6.60 ng/mL and 6.14 ng/mL

Question: And the Concentration (hGLP-1R mouse plasma collected at 120 min (IPGTT cohort), PO 1 mg/kg, individual animals, 1 mg/kg)?
Answer: 29.7 ng/mL and 31.0 ng/mL and 17.9 ng/mL and 14.2 ng/mL and 15.9 ng/mL and 14.9 ng/mL and 26.5 ng/mL

Question: And the Concentration (hGLP-1R mouse plasma, PO 0.3 mg/kg, 0.25 h, individual animals, 0.3 mg/kg)?
Answer: 11.2 ng/mL and 16.7 ng/mL and 46.8 ng/mL

Question: And the Concentration (hGLP-1R mouse plasma, PO 0.3 mg/kg, 0.5 h, individual animals, 0.3 mg/kg)?
Answer: 17.6 ng/mL and 14.6 ng/mL

Question: What about the Concentration (hGLP-1R mouse plasma, PO 0.3 mg/kg, 1 h, individual animals, 0.3 mg/kg) of the same compound?
Answer: 13.4 ng/mL and 23.5 ng/mL and 11.1 ng/mL

Question: And the Concentration (hGLP-1R mouse plasma, PO 0.3 mg/kg, 2 h, individual animals, 0.3 mg/kg)?
Answer: 2.43 ng/mL and 4.91 ng/mL and 2.76 ng/mL

Question: What about the Concentration (hGLP-1R mouse plasma, PO 0.3 mg/kg, 4 h, individual animals, 0.3 mg/kg) of the same compound?
Answer: BQL

Question: What about the Concentration (hGLP-1R mouse plasma, PO 0.3 mg/kg, 8 h, individual animals) of the same compound?
Answer: BQL

Question: What about the Tlast (hGLP-1R mouse plasma, PO 0.3 mg/kg, individual mice) of the same compound?
Answer: 2.00 h

Question: And the AUC0-inf [1]?
Answer: 22.9 ng·h/mL and 40.5 ng·h/mL and 19.4 ng·h/mL

Question: And the AUC0-last [1]?
Answer: 21.2 ng·h/mL and 35.4 ng·h/mL and 17.0 ng·h/mL

Question: What about the AUCExtra [1] of the same compound?
Answer: 7.39% and 12.7% and 12.4%

Question: And the AUMCExtra [1]?
Answer: 21.1% and 35.8% and 32.0%

Question: What about the Cmax [1] of the same compound?
Answer: 19.6 ng/mL and 46.8 ng/mL and 14.6 ng/mL

Question: And the MRT0-inf [1]?
Answer: 1.08 h and 1.11 h

Question: What about the MRT0-last [1] of the same compound?
Answer: 0.797 h and 0.861 h

Question: What about the T1/2 [1] of the same compound?
Answer: 0.727* h and 0.602 h

Question: And the Tmax [1]?
Answer: 0.250 h

Question: What about the AUCExtra [2] of the same compound?
Answer: 10.8%

Question: And the AUMCExtra [2]?
Answer: 29.6%

Question: And the Tlast [2]?
Answer: 2.00 h

Question: And the Concentration (hGLP-1R mouse plasma, PO 1 mg/kg, 0.25 h, individual animals, 1 mg/kg)?
Answer: 31.9 ng/mL and 31.8 ng/mL

Question: And the Concentration (hGLP-1R mouse plasma, PO 1 mg/kg, 0.5 h, individual animals, 1 mg/kg)?
Answer: 40.2 ng/mL and 41.2 ng/mL

Question: And the Concentration (hGLP-1R mouse plasma, PO 1 mg/kg, 1 h, individual animals, 1 mg/kg)?
Answer: 48.7 ng/mL and 23.7 ng/mL and 46.0 ng/mL

Question: And the Concentration (hGLP-1R mouse plasma, PO 1 mg/kg, 2 h, individual animals, 1 mg/kg)?
Answer: 22.4 ng/mL and 5.72 ng/mL and 15.4 ng/mL

Question: And the Concentration (hGLP-1R mouse plasma, PO 1 mg/kg, 4 h, individual animals, 1 mg/kg)?
Answer: BQL and 3.21 ng/mL

Question: And the Concentration (hGLP-1R mouse plasma, PO 1 mg/kg, 8 h, individual animals)?
Answer: BQL

Question: What about the AUC0-inf [3] of the same compound?
Answer: 86.4 ng·h/mL and 89.9 ng·h/mL

Question: What about the AUC0-last [3] of the same compound?
Answer: 68.7 ng·h/mL and 86.7 ng·h/mL

Question: And the AUCExtra [3]?
Answer: 3.91% and 20.5% and 3.54%

Question: What about the AUMCExtra [3] of the same compound?
Answer: 13.8% and 58.3% and 18.2%

Question: What about the Cmax [3] of the same compound?
Answer: 40.2 ng/mL and 46.0 ng/mL

Question: And the MRT0-inf [3]?
Answer: 1.45 h and 4.55 h and 2.05 h

Question: And the MRT0-last [3]?
Answer: 2.39 h and 1.74 h

Question: What about the T1/2 [3] of the same compound?
Answer: 0.791 h and 3.42* h and 1.77* h

Question: What about the Tlast [3] of the same compound?
Answer: 4.00 h and 8.00 h (2×)

Question: What about the Tmax [3] of the same compound?
Answer: 1.00 h

Question: And the AUCExtra [4]?
Answer: 9.32%

Question: What about the AUMCExtra [4] of the same compound?
Answer: 30.1%

Question: And the AUC(0-t) (male, C57BL/6J hGLP-1R, mouse, plasma, po, 0.3 mg/kg, hGLP-1R mice, total, PO 0.3 mg/kg, read-out: AUClast Mean)?
Answer: 24.5 ng·h/mL

Question: What about the Cmax (male, C57BL/6J hGLP-1R, mouse, plasma, po, 0.3 mg/kg, hGLP-1R mice, total, PO 0.3 mg/kg, read-out: Cmax Mean) of the same compound?
Answer: 27 ng/mL

Question: And the half-life (male, C57BL/6J hGLP-1R, mouse, plasma, po, 0.3 mg/kg, hGLP-1R mice, total, PO 0.3 mg/kg, read-out: T1/2 (converted))?
Answer: 0.604 h

Question: What about the Tmax (male, C57BL/6J hGLP-1R, mouse, plasma, po, 0.3 mg/kg, hGLP-1R mice, total, PO 0.3 mg/kg, read-out: Tmax Median) of the same compound?
Answer: 0.5 h

Question: What about the concentration at 120 min (male, C57BL/6J hGLP-1R, mouse, plasma, po, 0.3 mg/kg, hGLP-1R mouse plasma collected at 120 min (IPGTT cohort), PO 0.3 mg/kg, individual animals, read-out: Concentration) of the same compound?
Answer: 7.91 ng/mL
